# From ChEMBL document CHEMBL3627600, “Rapid synthesis and antimicrobial activity of novel 4-oxazolidinone heterocycles” (2015)
# Key:
# Format in all cases: functional
# Acinetobacter baumannii = assay: Antimicrobial activity against Acinetobacter baumannii ATCC 19606
# Staphylococcus aureus [1] = assay: Antimicrobial activity against Staphylococcus aureus ATCC 29213
# Staphylococcus aureus [2] = assay: Antimicrobial activity against methicillin-resistant Staphylococcus aureus ATCC 33591
smiles,measurement,setting,value
COc1c(Br)cc(/C=C2\O[C@H]([C@@H](Cl)CCNC(=N)N)NC2=O)cc1Br,MIC,Acinetobacter baumannii,100 mg/L
same,MIC,Staphylococcus aureus [1],12.5 mg/L
same,MIC,Staphylococcus aureus [2],20 mg/L
COc1c(Br)cc(/C=C2\O[C@H](CCCNC(=N)N)NC2=O)cc1Br,MIC,Acinetobacter baumannii,> 128 mg/L
same,MIC,Staphylococcus aureus [1],32 mg/L
same,MIC,Staphylococcus aureus [2],32 mg/L
CCCCCC1NC(=O)/C(=C/c2ccccc2)O1 (stereo not drawn),MIC,Acinetobacter baumannii,> 128 mg/L
same,MIC,Staphylococcus aureus [1],64 mg/L
same,MIC,Staphylococcus aureus [2],128 mg/L
CCCCCC1NC(=O)/C(=C/c2ccc(C)cc2)O1 (stereo not drawn),MIC,Acinetobacter baumannii,> 128 mg/L
same,MIC,Staphylococcus aureus [1],32 mg/L
same,MIC,Staphylococcus aureus [2],> 128 mg/L
CCCCCC1NC(=O)/C(=C/c2ccc(C(C)(C)C)cc2)O1 (stereo not drawn),MIC,Acinetobacter baumannii,> 128 mg/L
same,MIC,Staphylococcus aureus [1],> 128 mg/L
same,MIC,Staphylococcus aureus [2],> 128 mg/L
CCCCCC1NC(=O)/C(=C/c2ccc(F)cc2)O1 (stereo not drawn),MIC,Acinetobacter baumannii,> 128 mg/L
same,MIC,Staphylococcus aureus [1],> 128 mg/L
same,MIC,Staphylococcus aureus [2],> 128 mg/L
CCCCCC1NC(=O)/C(=C/c2ccc(Cl)cc2)O1 (stereo not drawn),MIC,Acinetobacter baumannii,> 128 mg/L
same,MIC,Staphylococcus aureus [1],> 128 mg/L
same,MIC,Staphylococcus aureus [2],> 128 mg/L
CCCCCC1NC(=O)/C(=C/c2ccc(C(F)(F)F)cc2)O1 (stereo not drawn),MIC,Acinetobacter baumannii,> 128 mg/L
same,MIC,Staphylococcus aureus [1],16 mg/L
same,MIC,Staphylococcus aureus [2],16 mg/L
CCCCCC1NC(=O)/C(=C/c2ccccc2[N+](=O)[O-])O1 (stereo not drawn),MIC,Acinetobacter baumannii,> 128 mg/L
same,MIC,Staphylococcus aureus [1],> 128 mg/L
same,MIC,Staphylococcus aureus [2],> 128 mg/L
CCCCCC1NC(=O)/C(=C/c2cc(Br)c(OC)c(Br)c2)O1 (stereo not drawn),MIC,Acinetobacter baumannii,> 128 mg/L
same,MIC,Staphylococcus aureus [1],16 mg/L
same,MIC,Staphylococcus aureus [2],32 mg/L
CCCCCC1NC(=O)/C(=C/c2ccc(OC)cc2)O1 (stereo not drawn),MIC,Acinetobacter baumannii,> 128 mg/L
same,MIC,Staphylococcus aureus [1],> 128 mg/L
same,MIC,Staphylococcus aureus [2],> 128 mg/L
CCCCCC1NC(=O)/C(=C/c2ccc([N+](=O)[O-])cc2)O1 (stereo not drawn),MIC,Acinetobacter baumannii,> 128 mg/L
same,MIC,Staphylococcus aureus [1],32 mg/L
same,MIC,Staphylococcus aureus [2],32 mg/L
CC(=O)NC[C@H]1CN(c2ccc(N3CCOCC3)c(F)c2)C(=O)O1 [LINEZOLID],MIC,Acinetobacter baumannii,> 128 mg/L
same,MIC,Staphylococcus aureus [1],0.5 mg/L
same,MIC,Staphylococcus aureus [2],1 mg/L
CN(C)[C@@H]1C(O)=C(C(N)=O)C(=O)[C@@]2(O)C(O)=C3C(=O)c4c(O)cccc4[C@@](C)(O)[C@H]3C[C@@H]12 [TETRACYCLINE],MIC,Acinetobacter baumannii,2 mg/L
same,MIC,Staphylococcus aureus [1],0.25 mg/L
same,MIC,Staphylococcus aureus [2],128 mg/L
CN[C@H](CC(C)C)C(=O)N[C@H]1C(=O)N[C@@H](CC(N)=O)C(=O)N[C@H]2C(=O)N[C@H]3C(=O)N[C@H](C(=O)N[C@H](C(=O)O)c4cc(O)cc(O)c4-c4cc3ccc4O)[C@H](O)c3ccc(c(Cl)c3)Oc3cc2cc(c3O[C@@H]2O[C@H](CO)[C@@H](O)[C@H](O)[C@H]2O[C@H]2C[C@](C)(N)[C@H](O)[C@H](C)O2)Oc2ccc(cc2Cl)[C@H]1O [VANCOMYCIN],MIC,Acinetobacter baumannii,> 128 mg/L
